{"source": "patent US8783089B2", "about": "“Device and method for determining the properties of aerosol formulations” (Boehringer Ingelheim International GmbH, priority 2008, dated 2014)", "experiment": "Characterisation of the air-liquid release system (Franz diffusion cell, online UV detection at 225 nm) with dissolved active substance", "type": "physicochemical", "protocol": "Above the membrane 6 an air chamber is formed as the second compartment 12, and the entire diffusion cell 13 (Franz cell) is surrounded by thermal insulation 9 and can be temperature controlled in the desired manner by means of a hotplate 10. The release medium is mixed by means of a magnetic stirrer 14. In order to characterise the system, first of all salbutamol sulphate, as the sample active substance, was added directly in the form of a dilute solution to the release medium (PBS, phosphate buffered saline) and measured at 225 nm in the photometer. […] Salbutamol sulphate applied to the membrane 6 reaches the maximum concentration after about ten minutes. This means that the membrane 6 forms a diffusion barrier for about six minutes. The total system has a reaction time of about ten minutes, i.e. changes in concentration caused by the release of active substance are detected with a ten minute delay. On the timescale of a typical release test over 24 hours this delay can be disregarded."}
{"substance": "salbutamol sulphate", "values": [{"measurement": "time until maximum concentration is reached", "setting": "applied to the membrane 6 (regenerated cellulose), release medium PBS, 225 nm", "value": "about ten"}, {"measurement": "incubation time until the active substance concentration reaches a plateau", "setting": "dilute solution added directly to the release medium (PBS), measured at 225 nm", "value": "about four"}]}
